The target of the test is T1, Indoleamine 2,3-dioxygenase (Homo sapiens, UniProt P14902).
T1 construct: endogenous in cells; host or cells: SKOV-3 (ATCC HTB-77), stimulated with 50 ng/ml interferon gamma
Description: SKOV-3 Cellular Indoleamine 2,3-dioxygenase Assay. The following applies: SKOV-3 cells, 50 ng/ml Interferon gamma, 100 μM L-Tryptophan, 24 hours, N-Formylkynurenin fluorescence detection; read-out: cell based activity (IC50). How it is done:
SKOV-3 Cellular Indoleamine 2,3-dioxygenase Assay
SKOV-3 cells were obtained from the American Type Culture Collection (ATCC® HTB-77™) and maintained in McCoy's medium (Pan Biotech) supplemented with 10% fetal bovine serum and 1% Penicillin/Streptomycin. Cells were kept at 37° C. in a humidified incubator with 5% CO2. For assay preparation, cells were seeded at a density of 2*10^5/ml into black clear bottom 96 well plates in 100 μl medium/well supplemented with 50 ng/ml Interferon gamma (eBioscience, Thermo Fisher Scientific). After cells fully adhered to the plate, dilution series of compounds were added in medium containing additional L-Tryptophan to a final L-Tryptophan concentration of 100 μM. The cells were incubated for 24 hours. Detection of produced N-Formylkynurenin was performed by addition of 3-Methylpiperidine to a final concentration of 200 mM. The plates were sealed and heated to 65° C. for 20 minutes in a water bath. After cooling the fluorescence of each well was recorded with a Victor™X4 (PerkinElmer) plate reader at an emission wavelength of 535 nm and excitation at 405 nm (Tomek et al.; Anal Bioanal Chem (2013) 405:2515-2524, Tomek et al.; Biochim Biophys Acta. 2015 September; 1850(9):1772-80).

T1 sequence (P14902 whole entry): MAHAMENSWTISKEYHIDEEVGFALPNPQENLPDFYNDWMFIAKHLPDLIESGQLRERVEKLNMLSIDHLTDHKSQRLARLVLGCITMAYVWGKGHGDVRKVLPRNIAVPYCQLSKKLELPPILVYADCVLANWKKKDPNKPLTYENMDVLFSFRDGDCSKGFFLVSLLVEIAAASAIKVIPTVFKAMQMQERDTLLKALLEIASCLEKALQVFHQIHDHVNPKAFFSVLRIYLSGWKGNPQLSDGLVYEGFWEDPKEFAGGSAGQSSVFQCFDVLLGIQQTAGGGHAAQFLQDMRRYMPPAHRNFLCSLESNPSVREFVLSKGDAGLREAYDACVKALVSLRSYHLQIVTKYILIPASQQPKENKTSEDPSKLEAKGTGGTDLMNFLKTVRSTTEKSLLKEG

The IC50 is the midpoint of a concentration-inhibition curve. As for `CCC(C(=O)Nc1ccc(Cl)cn1)C1CCC2(CC1)COc1cc(C(F)(F)F)ccc12` (single isomer, unassigned) [Example 10c, N-(5-chloropyridin-2-yl)-2-(6-(trifluoromethyl)-2H-spiro[benzofuran-3,1′-cyclohexan]-4′-yl)butanamide], the IC50 is less than 50 nM.

For `CC(c1nc2cc(Cl)ccc2[nH]1)C1CCC2(CC1)COc1cc(C(F)(F)F)ccc12` (single isomer, unassigned) [Example 11b, 5-Chloro-2-(1-(6-(trifluoromethyl)-2H-spiro[benzofuran-3,1′-cyclohexan]-4′-yl)ethyl)-1H-benzo[d]imidazole], the IC50 was not below 50 nM.

Take `CC(C(=O)Nc1ccc(Cl)cc1)C1CCC2(CC1)c1ccc(C(F)(F)F)cc1C(=O)N2C` (single isomer, unassigned) [Example 6d, N-(4-Chlorophenyl)-2-(2′-methyl-3′-oxo-5′-(trifluoromethyl)spiro[cyclohexane-1,1′-isoindolin]-4-yl)propanamide]: the IC50 was not below 50 nM.

For `CC(C(=O)Nc1ccc(Cl)cc1)C1CCC2(CC1)COc1nc(C(F)(F)F)ccc12` (single isomer, unassigned) [Example 5d, N-(4-chlorophenyl)-2-(6′-(trifluoromethyl)-2′H-spiro[cyclohexane-1,3′-furo[2,3-b]pyridin]-4-yl)propanamide], the half-maximal inhibitory concentration (IC50) is not below 50 nM.

As for `C[C@H](C(=O)Nc1ccc(Cl)cc1)[C@H]1CC[C@]2(CC1)COc1cc(C(F)(F)F)ccc12` [Example 3d, (S)—N-(4-Chlorophenyl)-2-((3R,4′s)-6-(trifluoromethyl)-2H-spiro[benzofuran-3,1′-cyclohexan]-4′-yl)propanamide], the half-maximal inhibitory concentration (IC50) is less than 50 nM.

On to `O=C(C[C@H]1CC[C@@]2(CC1)COc1cc(C(F)(F)F)ccc12)Nc1ccc(Cl)cc1F` (single isomer, unassigned) [Example 14b, N-(4-chloro-2-fluorophenyl)-2-(6-(trifluoromethyl)-2H-spiro[benzofuran-3,1′-cyclohexan]-4′-yl)acetamide], for which the IC50 is not below 50 nM.

On to `CC1CCC(NC(=O)C(C)C2CCC3(CC2)COc2cc(C(F)(F)F)ccc23)CC1` (single isomer, unassigned) [Example 9d, N-((1r,4r)-4-Methylcyclohexyl)-2-(6-(trifluoromethyl)-2H-spiro[benzofuran-3,1′-cyclohexan]-4′-yl)propanamide], for which the concentration for half-maximal inhibition (IC50) was not below 50 nM.

For `CC(C(=O)NC1Cc2ccc(F)cc21)C1CCC2(CC1)COc1cc(C(F)(F)F)ccc12` (single isomer, unassigned) [Example 12a], the IC50 was not below 50 nM.

Regarding `CC(c1nc2cc(Cl)ccc2[nH]1)C1CCC2(CC1)COc1cc(C(F)(F)F)ccc12` (single isomer, unassigned) [Example 11d, 5-Chloro-2-(1-(6-(trifluoromethyl)-2H-spiro[benzofuran-3,1′-cyclohexan]-4′-yl)ethyl)-1H-benzo[d]imidazole], the IC50 is less than 50 nM.

For `CC(C(=O)Nc1ccc(Cl)cc1)C1CCC2(CC1)c1ccc(C(F)(F)F)cc1C(=O)N2C` (single isomer, unassigned) [Example 6e, N-(4-Chlorophenyl)-2-(2′-methyl-3′-oxo-5′-(trifluoromethyl)spiro[cyclohexane-1,1′-isoindolin]-4-yl)propanamide], the half-maximal inhibitory concentration (IC50) is not below 50 nM.

Consider `CC(C(=O)Nc1ccc(Cl)cc1)C1CCC2(CC1)COc1ncc(C(F)(F)F)cc12` (single isomer, unassigned) [Example 4c, N-(4-chlorophenyl)-2-(5′-(trifluoromethyl)-2′H-spiro[cyclohexane-1,3′-furo[2,3-b]pyridin]-4-yl)propanamide], for which the concentration for half-maximal inhibition (IC50) is not below 50 nM.

For the compound `CC(C(=O)NC1Cc2ccc(F)cc21)C1CCC2(CC1)COc1cc(C(F)(F)F)ccc12` (single isomer, unassigned) [Example 12b], the IC50 was not below 50 nM.

As for `C[C@@H](C(=O)Nc1ccc(Cl)cc1)[C@H]1CC[C@@]2(CC1)COc1cc(C(F)(F)F)ccc12` [Example 3c, (R)—N-(4-Chlorophenyl)-2-((3R,4′r)-6-(trifluoromethyl)-2H-spiro[benzofuran-3,1′-cyclohexan]-4′-yl)propanamide], the IC50 was less than 50 nM.

For `CC(C(=O)Nc1ccc(Cl)cc1)C1CCC2(CC1)c1ccc(C(F)(F)F)cc1C(=O)N2C` (single isomer, unassigned) [Example 6c, N-(4-Chlorophenyl)-2-(2′-methyl-3′-oxo-5′-(trifluoromethyl)spiro[cyclohexane-1,1′-isoindolin]-4-yl)propanamide], the half-maximal inhibitory concentration (IC50) was less than 50 nM.

Regarding `CC(C(=O)Nc1ccc(Cl)cc1)C1CCC2(CC1)COc1nc(C(F)(F)F)ccc12` (single isomer, unassigned) [Example 5b, N-(4-chlorophenyl)-2-(6′-(trifluoromethyl)-2′H-spiro[cyclohexane-1,3′-furo[2,3-b]pyridin]-4-yl)propanamide], the IC50 was less than 50 nM.

Regarding `O=C(C[C@H]1CC[C@@]2(CCc3ccccc32)CC1)Nc1ccc(Cl)cc1` (single isomer, unassigned) [Example 1b, N-(4-chlorophenyl)-2-(2′,3′-dihydrospiro[cyclohexane-1,1′-inden]-4-yl)acetamide], the IC50 is not below 50 nM.

Consider `CCC(C(=O)Nc1ccc(Cl)cn1)C1CCC2(CC1)COc1cc(C(F)(F)F)ccc12` (single isomer, unassigned) [Example 10d, N-(5-chloropyridin-2-yl)-2-(6-(trifluoromethyl)-2H-spiro[benzofuran-3,1′-cyclohexan]-4′-yl)butanamide], for which the IC50 is less than 50 nM.

For the compound `Cc1ccc(NC(=O)C(C)C2CCC3(CC2)COc2cc(C(F)(F)F)ccc23)cc1` (single isomer, unassigned) [Example 8b, N-(p-Tolyl)-2-(6-(trifluoromethyl)-2H-spiro[benzofuran-3,1′-cyclohexan]-4′-yl)propanamide], the IC50 is less than 50 nM.

With `O=C(C[C@H]1CC[C@@]2(CCc3ccccc32)CC1)Nc1ccc(Cl)cc1` (single isomer, unassigned) [Example 1c, N-(4-chlorophenyl)-2-(2′,3′-dihydrospiro[cyclohexane-1,1′-inden]-4-yl)acetamide], the half-maximal inhibitory concentration (IC50) is less than 50 nM.

Regarding `O=C(C[C@H]1CC[C@@]2(CC1)COc1cc(C(F)(F)F)ccc12)Nc1ccc(Cl)cc1F` (single isomer, unassigned) [Example 14a, N-(4-chloro-2-fluorophenyl)-2-(6-(trifluoromethyl)-2H-spiro[benzofuran-3,1′-cyclohexan]-4′-yl)acetamide], the IC50 is less than 50 nM.

As to `CC1CCC(NC(=O)C(C)C2CCC3(CC2)COc2cc(C(F)(F)F)ccc23)CC1` (single isomer, unassigned) [Example 9b, N-((1r,4r)-4-Methylcyclohexyl)-2-(6-(trifluoromethyl)-2H-spiro[benzofuran-3,1′-cyclohexan]-4′-yl)propanamide], the IC50 is not below 50 nM.

For the compound `CC(C(=O)Nc1ccc(Cl)cc1)C1CCC2(CC1)COc1ncc(C(F)(F)F)cc12` (single isomer, unassigned) [Example 4d, N-(4-chlorophenyl)-2-(5′-(trifluoromethyl)-2′H-spiro[cyclohexane-1,3′-furo[2,3-b]pyridin]-4-yl)propanamide], the half-inhibitory concentration (IC50) is not below 50 nM.

`C[C@H](C(=O)Nc1ccc(Cl)cc1)[C@H]1CC[C@@]2(CC1)COc1cc(C(F)(F)F)ccc12` [Example 3b, (S)—N-(4-Chlorophenyl)-2-((3S,4′r)-6-(trifluoromethyl)-2H-spiro[benzofuran-3,1′-cyclohexan]-4′-yl)propanamide]: the concentration for half-maximal inhibition (IC50) is less than 50 nM.
